Experimental data published in US20250195513A1, “DEGRADATION OF IRAK4 BY CONJUGATION OF IRAK4 INHIBITORS WITH E3 LIGASE LIGAND AND METHODS OF USE” (BeiGene, Ltd., priority 2022, published 2025).

Tests used:
Format in all cases: cell-based
IRAK4 [1] = target: T1, IRAK4 (Homo sapiens, UniProt Q9NWZ3); experiment: IRAK4 Degradation Assay (Karpas299, HTRF/TR-FRET); conditions: Karpas-299 cells; for Dmax: maximum percentage of degradation
T1 construct: endogenous in cells; host or cells: Karpas299
T1 sequence (Q9NWZ3 1-460): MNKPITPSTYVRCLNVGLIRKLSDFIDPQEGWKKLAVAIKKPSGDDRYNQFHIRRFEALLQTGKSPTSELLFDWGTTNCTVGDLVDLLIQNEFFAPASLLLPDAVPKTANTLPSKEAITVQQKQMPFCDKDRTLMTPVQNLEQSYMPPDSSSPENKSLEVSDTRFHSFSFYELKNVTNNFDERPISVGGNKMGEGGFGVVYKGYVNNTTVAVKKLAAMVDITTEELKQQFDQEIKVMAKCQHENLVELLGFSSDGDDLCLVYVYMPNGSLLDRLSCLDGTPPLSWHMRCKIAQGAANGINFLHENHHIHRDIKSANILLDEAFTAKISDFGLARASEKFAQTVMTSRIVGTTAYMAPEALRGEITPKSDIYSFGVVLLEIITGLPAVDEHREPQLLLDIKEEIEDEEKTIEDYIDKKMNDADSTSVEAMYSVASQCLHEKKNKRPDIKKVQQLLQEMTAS
Procedure, shortened: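 Compound potency as DC50 (IC50) came from four-parameter fits of percent IRAK4 degradation. IRAK4 was measured by HTRF (665/620 nm) in lysates of Karpas299 cells seeded at 0.2 million per well. Cells had been treated with compound dilutions for 5 or 24 h.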

IRAK4 [2] = target: T1, IRAK4; experiment: IRAK4 Degradation Assay with Human Serum (Karpas299, HTRF/TR-FRET); conditions: Karpas-299 in human serum, 24 hrs treatment; for DC50: read-out: IRAK4 degradtion with human serum assay DC50; for Dmax: read-out: IRAK4 degradtion with human serum assay Dmax (%)
Procedure, shortened: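 Remaining IRAK4 measured by TR-FRET immunoassay on lysates of Karpas299 cells exposed 24 h to compound dilution series in human serum AB. DC50 derived from a Hill-slope fit of % degradation versus concentration.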

[3] = test system: IL-6 production in human PBMC; experiment: IL-6 Production Assay in Human PBMC (LPS stimulated); conditions: Homo sapiens, 5 h; for Emax: maximum inhibition, read-out: IL-6 (PBMC) 5 h IMax
Protocol: Frozen human PBMC (AllCells) were thawed in RPMI 1640 medium (Thermo Scientific) supplemented with 10% heat-inactivated FBS (Thermo Scientific) and recovered at 37° C. overnight. The next day, PBMC were seeded into 96-well plates at the density of 0.2 million cells per well and treated with compounds for 24 h. Then lipopolysaccharide was added at the final concentration of 10 ng/mL for 5 h. Culture supernatant was collected for subsequent measurement of IL-6 concentration by a TR-FRET-based method (Degorce, François, et al. Current chemical genomics. 2009, 3: 22) as described by the manufacturer manual (Cisbio). FRET signals were measured with PHERAstar FSX reader (BMG Labtech).

[4] = test system: TNF-α production in THP-1 cells; experiment: TNF-α Production Assay in THP-1 Cells (LPS stimulated); conditions: Homo sapiens, THP-1, 24 h; for Emax: maximum inhibition, read-out: TNF-α (THP-1) 24 h IMax
Protocol: THP-1 cells maintained in RPMI 1640 medium (Thermo Scientific) supplemented with 10% FBS (Thermo Scientific), 100 units/mL penicillin and 0.1 mg/mL streptomycin (Thermo Scientific) were seeded into 96-well plates at the density of 0.2 million cells per well and then treated with compounds for 24 h. Lipopolysaccharide was subsequently added at the final concentration of 1 μg/mL for 24 h. Culture supernatant was collected for measurement of TNF-α concentration by a TR-FRET-based method (Degorce, François, et al. Current chemical genomics. 2009, 3: 22) as described by the manufacturer manual (Cisbio). FRET signals were measured using a PHERAstar FSX reader (BMG Labtech).

[5] = 24 h treatment, read-out: IRAK4 in Karpas-299 (24 h) Dmax (%)
[6] = 24 h treatment, read-out: IRAK4 in Karpas-299 (24 h) DC50
[7] = 5 h treatment, read-out: IRAK4 in Karpas-299 (5 h) Dmax (%)
[8] = 5 h treatment, read-out: IRAK4 in Karpas-299 (5 h) DC50

Question: With `CC(C)(O)c1cc2nn([C@H]3CC[C@H](N4C[C@@H]5CN(CCc6cc(F)c([C@H]7CCC(=O)NC7=O)c(F)c6)C[C@H]5C4)CC3)cc2cc1NC(=O)c1ccc2cc(C#N)cnn12` [Example 362, 3-cyano-N-(2-((1S,4r)-4-((3aS,6aS)-5-(4-((R)-2,6-dioxopiperidin-3-yl)-3,5-difluorophenethyl)hexahydropyrrolo[3,4-c]pyrrol-2(1H)-yl)cyclohexyl)-6-(2-hydroxypropan-2-yl)-2H-indazol-5-yl)pyrrolo[1,2-b]pyridazine-7-carboxamide] as the compound, how does the Dmax (IRAK4 [1]; [5]) read?
Answer: 98%

Question: And the DC50 (IRAK4 [1]; [6])?
Answer: 2.5 nM

Question: And the DC50 (IRAK4 [2])?
Answer: 5.1 nM

Question: What about the Dmax (IRAK4 [2]) of the same compound?
Answer: 97%

Question: What about the IC50 [3] of the same compound?
Answer: 6 nM

Question: And the Emax [3]?
Answer: 71%

Question: `CC(C)(O)c1cc2nn(C3CCC(N4C[C@@H]5CN(C6CN(c7cc(F)c([C@H]8CCC(=O)NC8=O)c(F)c7)C6)C[C@H]5C4)CC3)cc2cc1NC(=O)c1ccc2cc(C#N)cnn12` (stereo partly drawn) [Example 360, 3-cyano-N-(2-((1R,4r)-4-((3aR,6aR)-5-(1-(4-((R)-2,6-dioxopiperidin-3-yl)-3,5-difluorophenyl)azetidin-3-yl)hexahydropyrrolo[3,4-c]pyrrol-2(1H)-yl)cyclohexyl)-6-(2-hydroxypropan-2-yl)-2H-indazol-5-yl)pyrrolo[1,2-b]pyridazine-7-carboxamide] was tested. Which Dmax (IRAK4 [1]; [5]) did it give?
Answer: 97%

Question: And the DC50 (IRAK4 [1]; [6])?
Answer: 0.6 nM

Question: And the DC50 (IRAK4 [2])?
Answer: 1.8 nM

Question: What about the Dmax (IRAK4 [2]) of the same compound?
Answer: 98%

Question: What about the IC50 [3] of the same compound?
Answer: 0.6 nM

Question: And the Emax [3]?
Answer: 67%

Question: For `CC(C)(O)c1cc2nn([C@H]3CC[C@H](N4CCN([C@H]5C[C@@H](c6cc(F)c([C@H]7CCC(=O)NC7=O)c(F)c6)C5)CC4)CC3)cc2cc1NC(=O)c1ccc2cc(C#N)cnn12` [Example 363, 3-cyano-N-(2-((1S,4r)-4-(4-((1S,3S)-3-(4-((R)-2,6-dioxopiperidin-3-yl)-3,5-difluorophenyl)cyclobutyl)piperazin-1-yl)cyclohexyl)-6-(2-hydroxypropan-2-yl)-2H-indazol-5-yl)pyrrolo[1,2-b]pyridazine-7-carboxamide], which Dmax (IRAK4 [1]; [7]) is on record?
Answer: 95%

Question: And the DC50 (IRAK4 [1]; [8])?
Answer: 1.2 nM

Question: What about the Dmax (IRAK4 [1]; [5]) of the same compound?
Answer: 96%

Question: And the DC50 (IRAK4 [1]; [6])?
Answer: 0.8 nM

Question: And the DC50 (IRAK4 [2])?
Answer: 5.9 nM

Question: And the Dmax (IRAK4 [2])?
Answer: 97%

Question: What about the IC50 [3] of the same compound?
Answer: 2.2 nM

Question: And the Emax [3]?
Answer: 67%

Question: Which results are given for `COc1cc2nn([C@H]3CC[C@H](N4CCN(CC5CN(c6cc(F)c([C@H]7CCC(=O)NC7=O)c(F)c6)C5)CC4)CC3)cc2cc1C(=O)Nc1cnc2cccnn12` [Example 345, 2-((1r,4r)-4-(4-((1-(4-((R)-2,6-dioxopiperidin-3-yl)-3,5-difluorophenyl)azetidin-3-yl)methyl)piperazin-1-yl)cyclohexyl)-N-(imidazo[1,2-b]pyridazin-3-yl)-6-methoxy-2H-indazole-5-carboxamide]?
Answer: Dmax (IRAK4 [1]; [5]): 98%; DC50 (IRAK4 [1]; [6]): 0.2 nM; DC50 (IRAK4 [2]): 0.7 nM; Dmax (IRAK4 [2]): 96%; IC50 [3]: 3.5 nM; Emax [3]: 60%

Question: With `C[C@@H]1CN([C@H]2CC[C@H](n3cc4cc(NC(=O)c5ccc6cc(C#N)cnn56)c(C(C)(C)O)cc4n3)CC2)CCN1C(=O)C1CN(c2cc(F)c([C@H]3CCC(=O)NC3=O)c(F)c2)C1` [Example 309, 3-cyano-N-(2-((1R,4r)-4-((R)-4-(1-(4-((R)-2,6-dioxopiperidin-3-yl)-3,5-difluorophenyl)azetidine-3-carbonyl)-3-methylpiperazin-1-yl)cyclohexyl)-6-(2-hydroxypropan-2-yl)-2H-indazol-5-yl)pyrrolo[1,2-b]pyridazine-7-carboxamide] as the compound, how does the Dmax (IRAK4 [1]; [5]) read?
Answer: 97%

Question: What about the DC50 (IRAK4 [1]; [6]) of the same compound?
Answer: 0.4 nM

Question: And the DC50 (IRAK4 [2])?
Answer: 14 nM

Question: What about the Dmax (IRAK4 [2]) of the same compound?
Answer: 100%

Question: What about the IC50 [4] of the same compound?
Answer: 31 nM

Question: And the Emax [4]?
Answer: 90%

Question: Which results are given for `CC(C)(O)c1cc2nn([C@H]3CC[C@H](N4CCN(C(=O)C5CN(c6cc(F)c(N7CCC(=O)NC7=O)c(F)c6)C5)CC4)CC3)cc2cc1NC(=O)c1ccc2cc(C#N)cnn12` [Example 105, 3-cyano-N-(2-((1r,4r)-4-(4-(1-(4-(2,4-dioxotetrahydropyrimidin-1(2H)-yl)-3,5-difluorophenyl)azetidine-3-carbonyl)piperazin-1-yl)cyclohexyl)-6-(2-hydroxypropan-2-yl)-2H-indazol-5-yl)pyrrolo[1,2-b]pyridazine-7-carboxamide]?
Answer: Dmax (IRAK4 [1]; [7]): 97%; DC50 (IRAK4 [1]; [8]): 3.1 nM; Dmax (IRAK4 [1]; [5]): 98%; DC50 (IRAK4 [1]; [6]): 0.7 nM; DC50 (IRAK4 [2]): 21 nM; Dmax (IRAK4 [2]): 98%; IC50 [4]: 36 nM; Emax [4]: 78%

Question: For `COC[C@@H]1CN([C@H]2CC[C@H](n3cc4cc(NC(=O)c5ccc6cc(C#N)cnn56)c(C(C)(C)O)cc4n3)CC2)CCN1CC1CN(c2cc(F)c([C@H]3CCC(=O)NC3=O)c(F)c2)C1` [Example 358, 3-cyano-N-(2-((1S,4r)-4-((S)-4-((1-(4-((R)-2,6-dioxopiperidin-3-yl)-3,5-difluorophenyl)azetidin-3-yl)methyl)-3-(methoxymethyl)piperazin-1-yl)cyclohexyl)-6-(2-hydroxypropan-2-yl)-2H-indazol-5-yl)pyrrolo[1,2-b]pyridazine-7-carboxamide], which Dmax (IRAK4 [1]; [7]) is on record?
Answer: 95%

Question: What about the DC50 (IRAK4 [1]; [8]) of the same compound?
Answer: 1.9 nM

Question: What about the Dmax (IRAK4 [1]; [5]) of the same compound?
Answer: 99%

Question: And the DC50 (IRAK4 [1]; [6])?
Answer: 0.5 nM

Question: What about the DC50 (IRAK4 [2]) of the same compound?
Answer: 5.4 nM

Question: What about the Dmax (IRAK4 [2]) of the same compound?
Answer: 96%

Question: And the IC50 [4]?
Answer: 17 nM

Question: What about the Emax [4] of the same compound?
Answer: 96%

Question: With `CC(C)(O)c1cc2nn([C@H]3C[C@H](N4CCN(C(=O)C5CN(c6cc(F)c([C@H]7CCC(=O)NC7=O)c(F)c6)C5)CC4)C3)cc2cc1NC(=O)c1ccc2cc(C#N)cnn12` [Example 201, 3-cyano-N-(2-((1R,3r)-3-(4-(1-(4-((R)-2,6-dioxopiperidin-3-yl)-3,5-difluorophenyl)azetidine-3-carbonyl)piperazin-1-yl)cyclobutyl)-6-(2-hydroxypropan-2-yl)-2H-indazol-5-yl)pyrrolo[1,2-b]pyridazine-7-carboxamide] as the compound, how does the Dmax (IRAK4 [1]; [5]) read?
Answer: 96%

Question: And the DC50 (IRAK4 [1]; [6])?
Answer: 0.8 nM

Question: What about the DC50 (IRAK4 [2]) of the same compound?
Answer: 11 nM

Question: What about the Dmax (IRAK4 [2]) of the same compound?
Answer: 99%

Question: What about the IC50 [4] of the same compound?
Answer: 6.7 nM

Question: What about the Emax [4] of the same compound?
Answer: 80%

Question: For `C[C@@H]1CN(C(=O)C2CN(c3cc(F)c([C@H]4CCC(=O)NC4=O)c(F)c3)C2)CCN1[C@H]1CC[C@H](n2cc3cc(NC(=O)c4ccc5cc(C#N)cnn45)c(C(C)(C)O)cc3n2)CC1` [Example 298, 3-cyano-N-(2-((1R,4r)-4-((R)-4-(1-(4-((R)-2,6-dioxopiperidin-3-yl)-3,5-difluorophenyl)azetidine-3-carbonyl)-2-methylpiperazin-1-yl)cyclohexyl)-6-(2-hydroxypropan-2-yl)-2H-indazol-5-yl)pyrrolo[1,2-b]pyridazine-7-carboxamide], which Dmax (IRAK4 [1]; [5]) is on record?
Answer: 99%

Question: And the DC50 (IRAK4 [1]; [6])?
Answer: 0.3 nM

Question: And the DC50 (IRAK4 [2])?
Answer: 9.8 nM

Question: What about the Dmax (IRAK4 [2]) of the same compound?
Answer: 103%

Question: And the IC50 [4]?
Answer: 13 nM

Question: And the Emax [4]?
Answer: 93%

Question: For `COc1cc(N2CC(C(=O)N3CCN([C@H]4CC[C@H](n5cc6cc(NC(=O)c7ccc8cc(C#N)cnn78)c(C(C)(C)O)cc6n5)CC4)CC3)C2)ccc1N1CCC(=O)NC1=O` [Example 269], which Dmax (IRAK4 [1]; [5]) is on record?
Answer: 97%

Question: And the DC50 (IRAK4 [1]; [6])?
Answer: 1.8 nM

Question: And the DC50 (IRAK4 [2])?
Answer: 11 nM

Question: What about the Dmax (IRAK4 [2]) of the same compound?
Answer: 94%

Question: What about the IC50 [4] of the same compound?
Answer: 24 nM

Question: What about the Emax [4] of the same compound?
Answer: 89%
